From patent US8399689B2, “Chrysophaentin antimicrobial compounds that inhibit FtsZ protein” (The United States of America, as represented by the …, priority 2010, dated 2013)
Values after ≈ are worked out from the molar mass of the structure shown. Where two headings read alike, the source gives them in different places.

What was measured:
[1] = system: vancomycin-resistant E. Faecium (VRE, ATCC 700221); test: Microbroth dilution assay, VREF; assay type: cell-based, Enterococcus faecium; settings: for MIC50: Enterococcus faecium, read-out: MIC50 (μg/mL) VREF
Description: (§1) Compounds 1-8 were tested for antimicrobial activity against Staphylococcus aureus (SA, ATCC 25923), methicillin-resistant S. aureus (MRSA, ATCC BAA-41), multidrug-resistant S. aureus (MDRSA, ATCC BAA-44), Enterococcus faecium (EF, ATCC 49032), vancomycin-resistant E. Faecium (VRE, ATCC 700221), and Bacillus subtilis (ATCC 49343) using a modified disk diffusion assay and microbroth liquid dilution assays. For disk diffusion assays, agar plates seeded with suspensions of bacteria were prepared by adding 500 μL of a 24 h culture of bacteria to 100 mL of autoclaved Mueller Hinton II agar and cooled to 55° C. Seeded liquid agar (10 mL) was transferred immediately to square Petri dishes and allowed to cool for 1 h. Control drugs used for each microorganism included kanamycin (50 μg) for S. aureus, and nitrofurantoin (25 μg) for MRSA. Following incubation at 37° C. for 18 h, zones of inhibition were measured. MICso values for compounds 1 and 4-8 were determined using a microbroth dilution assay outlined in the Clinical and Laboratory Standards Institute methods for susceptibility tests for bacteria that grow aerobically. Briefly, single bacterial colonies were used to inoculate 4 mL of Trypticase Soy broth (BD) for overnight growth and inoculum for each were diluted to 5×10^5 CFU/mL using the 0.5 McFarland standard. In a 96 well plate (Costar, round bottom), control antibiotics (oxacillin for SA and MRSA, vancomycin for EF and VRE, chloramphenicol for B. subtilis) or natural product inhibitors were added to Muller Hinton II broth (for S. aureus, MRSA, and B. subtilis) or 10% brain heart infusion broth (for E. faecium and VRE) in the first column of the well plates, and serially diluted across the plate, reserving wells for a positive growth control (no treatment). 10 μL of diluted bacteria were added to all wells with the exception of those kept for broth blanks (MHII or brain heart infusion broth only). Plates were incubated at 37° C. overnight and read at absorbance 600 nm on a Molecular Devices plate reader. Growth curves were plotted and ICso values obtained using Kalidagraph software.

[2] = system: Staphylococcus aureus (SA, ATCC 25923); test: Microbroth dilution assay, S. aureus; assay type: cell-based; settings: for MIC50: Staphylococcus aureus
Description: as §1

[3] = system: methicillin-resistant S. aureus (MRSA, ATCC BAA-41); test: Microbroth dilution assay, MRSA; assay type: cell-based, Staphylococcus aureus; settings: for MIC50: Staphylococcus aureus, read-out: MIC50 (μg/mL) MRSA
Description: as §1

[4] = system: Gram-positive pathogens (S. aureus, B. subtilis, E. faecium, MRSA, MDRSA, VREF); test: Disk diffusion and microbroth dilution assays, strains taken together; assay type: cell-based
Description: Solid agar disk diffusion and microbroth dilution assays were used to evaluate the antimicrobial activities of compounds 1, hexaacetate 1a, and 4-8 toward clinically relevant, Gram-positive pathogens, including the drug-susceptible bacteria Staphylococcus aureus, Bacillus subtilis and Enterococcus faecium, and drug-resistant strains methicillin-resistant S. aureus (MRSA), multidrug-resistant S. aureus (MDRSA), and vancomycin-resistant E. faecium (VREF) (see Table 7, Example 2).
as §1, with “In a 96 well plate (Costar, round bottom), control antibiotics (oxacillin for SA and MRSA, vancomycin for EF and VRE, chloramphenicol for B. subtilis) or natural product inhibitors were added to Muller Hinton II broth (for S. aureus, MRSA, and B. subtilis) or 10% brain heart infusion broth (for E. faecium and VRE) in the first column of the well plates, and serially diluted across the plate, reserving wells for a positive growth control (no treatment). 10 μL of diluted bacteria were added to all wells with the exception of those kept for broth blanks (MHII or brain heart infusion broth only).” left out, “Growth curves were plotted and ICso values obtained using Kalidagraph software.” left out

[5] = system: vancomycin-resistant E. Faecium (VRE, ATCC 700221); test: Agar disk diffusion assay, VREF; assay type: cell-based, Enterococcus faecium; settings: Lowest concentrations leading to 8-10 mm zones of inhibition
Description: as §1

[6] = system: methicillin-resistant S. aureus (MRSA, ATCC BAA-41); test: Agar disk diffusion assay, MRSA; assay type: cell-based, Staphylococcus aureus; settings: Lowest concentrations leading to 8-10 mm zones of inhibition
Description: as §1

[7] = system: Enterococcus faecium (EF, ATCC 49032); test: Agar disk diffusion assay, E. faecium; assay type: cell-based; settings: Lowest concentrations leading to 8-10 mm zones of inhibition
Description: as §1

[8] = system: Enterococcus faecium (EF, ATCC 49032); test: Microbroth dilution assay, E. faecium; assay type: cell-based; settings: concentration at which growth is reduced by 50%; for MIC50: Enterococcus faecium, ATCC49032, microbroth dilution, read-out: MIC50 (μg/mL) E. faecium
Description: as §1

[9] = system: Staphylococcus aureus (SA, ATCC 25923); test: Agar disk diffusion assay, S. aureus; assay type: cell-based; settings: Lowest concentrations leading to 8-10 mm zones of inhibition
Description: as §1

[10] = system: tubulin; test: Tubulin polymerization assay; assay type: biochemical; settings: chrysophaentin 1 at 150 μM; paclitaxel, nocodazole at standardized concentrations
[11] = microbroth dilution, concentration at which growth is reduced by 50%
[12] = ATCC25923, microbroth dilution, concentration at which growth is reduced by 50%, read-out: MIC50 (μg/mL) S. aureus
[13] = ATCC25923, read-out: MIC50 (μg/mL) S. aureus

SMILES | MIC50 [1, 11] | MIC50 [2, 12] | MIC50 [3, 11] | fold change in MIC50 versus chrysophaentin 1 ([4]; all four strains) | Agar disk diffusion (μg/disk) VREF [5] | Agar disk diffusion (μg/disk) MRSA [6] | Agar disk diffusion (μg/disk) E. faecium [7] | MIC50 [8] | Agar disk diffusion (μg/disk) S. aureus [9] | MIC50 (μg/mL) VREF [1, 11] | MIC50 [2, 13] | MIC50 (μg/mL) E. faecium ([8]; microbroth dilution) | MIC50 (μg/mL) S. aureus [2, 11] | MIC50 (μg/mL) MRSA [3, 11] | potency relative to compound 7 [4] | MIC50 [1] | MIC50 [3] | tubulin polymerization velocity v [10]
Oc1cc(O)c2c(c1)C/C(Cl)=C\Cc1cc(c(Br)cc1O)Oc1c(O)cc(cc1O)C/C(Cl)=C\Cc1cc(c(Br)cc1O)O2 [Compound 4, chrysophaentin 4] | > 25 µg/mL | > 25 µg/mL | 19 ± 5.9 µg/mL (≈ 24.8 µM) | ~12 fold | 25 μg/disk | 25 μg/disk | 25 μg/disk | > 50 µg/mL | 25 μg/disk |  |  |  |  |  |  |  |  | 
Oc1cc(O)cc(C/C(Cl)=C\Cc2cc(Oc3c(O)cc(C/C(Cl)=C\Cc4cc(O)c(Cl)cc4O)cc3O)c(Cl)cc2O)c1 [Compound 5, chrysophaentin 5] | > 25 µg/mL |  | 8.9 ± 2.8 µg/mL (≈ 13.1 µM) |  | 25 μg/disk | 10 μg/disk | 25 μg/disk | > 25 µg/mL | 25 μg/disk | >25 µg/mL | 10.5 ± 3.8 µg/mL (≈ 15.4 µM) | >25 µg/mL |  |  |  |  |  | 
Oc1cc(Cl)c2cc1C/C=C(/Cl)Cc1cc(O)c(c(O)c1)Oc1cc(c(O)cc1Cl)C/C=C(/Cl)Cc1cc(O)c(c(O)c1)O2 [Compound 6, chrysophaentin 6] | ~9.5 µg/mL (≈ 14 µM) | 4 to 6 µg/mL (≈ 5.9 to 8.85 µM) | 4 to 6 µg/mL (≈ 5.9 to 8.85 µM) |  | 10 μg/disk | 10 μg/disk | 10 μg/disk | > 25 µg/mL | 10 μg/disk | 9.5 ± 3.0 µg/mL (≈ 14 µM) |  |  | 5.3 ± 1.9 µg/mL (≈ 7.81 µM) | 4.2 ± 1.2 µg/mL (≈ 6.19 µM) | at least 3 × |  |  | 
Oc1cc(Cl)c2cc1C/C=C(/Cl)Cc1cc(O)c(c(O)c1)Oc1cc(c(O)cc1Br)C/C=C(/Cl)Cc1cc(O)c(c(O)c1)O2 [Compound 7, chrysophaentin 7] |  |  |  |  | NA (NA, no zone of inhibition observed at 25 μg/disk) | NA (NA, no zone of inhibition observed at 25 μg/disk) | NA (NA, no zone of inhibition observed at 25 μg/disk) | > 50 µg/mL | NA (NA, no zone of inhibition observed at 25 μg/disk) |  | 16.6 ± 5.3 µg/mL (≈ 23 µM) |  |  |  |  | 24.6 ± 7.3 µg/mL (≈ 34 µM) | 12.3 ± 3.1 µg/mL (≈ 17 µM) | 
Oc1cc(Cl)c2cc1C/C=C(/Cl)Cc1cc(O)c(c(O)c1Br)Oc1cc(c(O)cc1Cl)C/C=C(/Cl)Cc1cc(O)c(c(O)c1)O2 [Compound 8, chrysophaentin 8] | ~9.5 µg/mL (≈ 12.5 µM) | 4 to 6 µg/mL (≈ 5.28 to 7.92 µM) | 4 to 6 µg/mL (≈ 5.28 to 7.92 µM) |  |  |  |  | > 25 µg/mL |  |  |  |  |  |  |  |  |  | 
COC(=O)Nc1nc2ccc(C(=O)c3cccs3)cc2[nH]1 [nocodazole, reference compound] |  |  |  |  |  |  |  |  |  |  |  |  |  |  |  |  |  | 12 min⁻¹
CC(=O)O[C@H]1C(=O)[C@@]2(C)[C@H]([C@H](OC(=O)c3ccccc3)[C@]3(O)C[C@H](OC(=O)[C@H](O)[C@@H](NC(=O)c4ccccc4)c4ccccc4)C(C)=C1C3(C)C)[C@]1(OC(C)=O)CO[C@@H]1C[C@@H]2O [paclitaxel, reference compound] |  |  |  |  |  |  |  |  |  |  |  |  |  |  |  |  |  | 80 min⁻¹
